Source: US8431706B2, “1,2,3,4-tetrahydroqinoline derivative useful for the treatment of diabetes” (Eli Lilly and Company, priority 2011, dated 2013)

Tests used:
[1] = test system: primary rodent pancreatic islets of Langerhans; test: GDIS assay in primary rodent pancreatic islets; type: cell-based; conditions: 3.0 uM with rat islets and 11.2 mM glucose; compared to 11.2 mM glucose; 90 min; P<0.05
Text: Because activation of GPR40 is known to result in insulin secretion, which is dependent on high glucose concentrations, two separate assay systems (an insulinoma cell line and primary rodent islets) are developed to further characterize compounds that are known to increase intracellular calcium in the GPR40 primary assay discussed above.
GDIS assays using primary rodent pancreatic islets of Langerhans are also used to characterize the exemplified compound. Pancreatic islets are isolated from male SD (Sprague Dawley) rats by collagenase digestion and Histopaque density gradient separation. The islets are cultured overnight in RPMI-1640 medium with GlutaMAXn (stabilized, dipeptide form of L-glutamine (Invitrogen catalog #61870-010)) to facilitate recovery from the isolation process. Insulin secretion is determined by a 90 minute incubation in EBSS (Earle's Balances Salt Solution) buffer in a 48-well plate. Briefly, islets are first preincubated in EBSS with 2.8 mM glucose for 30 min, and are then transferred to a 48-well plate (four islets/well) containing 150 μl 2.8 mM glucose, and incubated with 150 μl of EBSS with 2.8 or 11.2 mM glucose in the presence or absence of test compound for 90 minutes. The buffer is removed from the wells at the end of the incubation, and assayed for insulin levels using the Rat Insulin ELISA kit (Mercodia). […]

PPARα = biological target: T1, PPARα (Homo sapiens, UniProt Q07869); test: PPARα binding assay (SPA)
T1 construct: made in house; host or cells: HEK293 (cell lysates)
T1 sequence (Q07869 1-468): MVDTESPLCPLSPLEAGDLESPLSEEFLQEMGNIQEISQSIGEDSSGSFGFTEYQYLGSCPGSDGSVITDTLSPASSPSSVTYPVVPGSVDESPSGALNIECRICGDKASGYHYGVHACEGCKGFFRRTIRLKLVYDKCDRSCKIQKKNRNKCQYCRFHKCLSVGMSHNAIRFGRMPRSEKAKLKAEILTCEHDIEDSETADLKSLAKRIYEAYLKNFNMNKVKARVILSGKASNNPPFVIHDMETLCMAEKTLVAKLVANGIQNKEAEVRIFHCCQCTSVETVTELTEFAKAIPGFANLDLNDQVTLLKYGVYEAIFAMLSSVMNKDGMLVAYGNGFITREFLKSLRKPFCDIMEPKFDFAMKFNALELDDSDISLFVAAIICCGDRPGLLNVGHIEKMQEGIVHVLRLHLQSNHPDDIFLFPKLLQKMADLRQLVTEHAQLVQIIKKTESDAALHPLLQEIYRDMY
T1 sequence (P19793 1-462 partner): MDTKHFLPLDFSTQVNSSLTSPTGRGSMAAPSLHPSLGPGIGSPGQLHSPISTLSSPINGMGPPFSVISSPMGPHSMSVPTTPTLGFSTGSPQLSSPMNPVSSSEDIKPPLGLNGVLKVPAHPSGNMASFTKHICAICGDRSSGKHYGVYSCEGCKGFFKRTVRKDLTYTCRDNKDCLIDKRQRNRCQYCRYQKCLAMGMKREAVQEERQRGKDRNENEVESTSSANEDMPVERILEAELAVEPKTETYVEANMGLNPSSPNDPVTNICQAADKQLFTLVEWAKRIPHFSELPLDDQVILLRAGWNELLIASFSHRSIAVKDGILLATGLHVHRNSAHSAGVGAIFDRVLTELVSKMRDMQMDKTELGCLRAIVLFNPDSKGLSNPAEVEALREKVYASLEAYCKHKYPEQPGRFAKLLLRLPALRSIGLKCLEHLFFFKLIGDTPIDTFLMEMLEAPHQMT
Method: Because GPR40 is known to be activated by ligands to PPARγ, the exemplified compound is examined in PPARα, PPARδ, and PPARγ binding and functional assays to determine the selectivity of the compound of Example 1 for GPR40.
Binding affinities of the compound for the PPAR α, δ, and γ receptors are assessed using Scintillation Proximity Assay (SPA) technology. Biotinylated oligonucleotide Direct Repeat 2 (DR2) is used for binding the receptors to Yttrium silicate streptavidin-coated SPA beads. PPAR α, δ, γ and retinoid X receptor (RXR) α are over expressed in HEK293 cells, and cell lysates containing the specific receptors are used in the individual assays. The DR2 is attached to the SPA beads over a 30 minute period in a binding buffer containing 10 mM HEPES pH 7.8, 80 mM KCl, 0.5 mM MgCl2, 1 mM DTT, 0.5% 3[(3-cholamidopropyl)dimethylammonio]-propanesulfonic acid (CHAPS), and 4.4% bovine serum. […] Non-specific binding is determined in the presence of 10,000 nM of the unlabeled PPAR α/δ dual agonist reference compound for the alpha and delta receptor assays and the PPARγ agonist reference compound for the gamma receptor assay. The binding reaction (100 μl per well in a 96 well [Costar 3632] plate) is incubated for 10 h and counted disintegration per minutes (dpm) on a Wallac Microbeta. Receptor binding affinity (IC50) for the compound is determined by fitting an 11 point concentration-response curve with a 4-parameter logistic equation. Ki is determined from the IC50 using the Cheng-Prussoff equation and Kd determined by saturation binding. […]

binding (PPARα; concentrations up to 10 μM): no binding is detected
IC50 (PPARα; tested up to 30 μM, read-out: relative IC50): > 10 µM
PPAR binding values (PPARα; with 10 μM concentrations of test compound): greater than 1000 nM
Compound: CC#C[C@@H](CC(=O)O)c1ccc(OCc2ccc(CN3CCCc4cccc(OC)c43)s2)cc1 [Example 1, (3S)-3-[4-[[5-[(8-Methoxy-3,4-dihydro-2H-quinolin-1-yl)methyl]-2-thienyl]methoxy]phenyl]hex-4-ynoic acid]
increase in insulin [1]: 2.1 fold
